According to PMC10974167 (Toxins, 2024):

Key:
[1] = parameters: method as in PMID 22488789; conditions: cited from earlier work
[2] = type: binding; conditions: pH 8

Substance: cholera toxin B-subunit [Wild-type]
- Lewis-y glycan binding (result in words) [1]: very low affinity
- Kd [2]: 43 ± 8 nM
